Data reported in the NIST ThermoML archive (doi:10.1016/j.jct.2014.03.021).
± gives the expanded uncertainty stated by the source.

Assay: refractive index (Na D-line) (dimensionless); xn = mol fraction of the nth substance listed
Conditions: 101 kPa, Liquid, Standard Abbe refractometry

## C[C@H](O)C(=O)[O-].C[N+](C)(C)CCO + O
293.15 K, x1 = 0.0258
  refractive index: 1.36903 ± 0.00047
293.15 K, x1 = 0.0511
  refractive index: 1.39091 ± 0.00048
293.15 K, x1 = 0.074
  refractive index: 1.41121 ± 0.0004
293.15 K, x1 = 0.1027
  refractive index: 1.41982 ± 0.00035
293.15 K, x1 = 0.1965
  refractive index: 1.43901 ± 0.00039
293.15 K, x1 = 0.2957
  refractive index: 1.45194 ± 0.00045
293.15 K, x1 = 0.416
  refractive index: 1.46075 ± 0.00054
293.15 K, x1 = 0.5184
  refractive index: 1.46916 ± 0.00062
293.15 K, x1 = 0.5347
  refractive index: 1.46974 ± 0.00064
293.15 K, x1 = 0.6044
  refractive index: 1.47013 ± 0.00069
293.15 K, x1 = 0.6931
  refractive index: 1.47355 ± 0.00077
293.15 K, x1 = 0.7801
  refractive index: 1.47251 ± 0.00085
293.15 K, x1 = 0.8279
  refractive index: 1.47481 ± 0.00089
293.15 K, x1 = 0.8996
  refractive index: 1.48014 ± 0.00096
298.15 K, x1 = 0.0258
  refractive index: 1.36828 ± 0.00047
298.15 K, x1 = 0.0511
  refractive index: 1.38998 ± 0.00047
298.15 K, x1 = 0.074
  refractive index: 1.4101 ± 0.00039
298.15 K, x1 = 0.1027
  refractive index: 1.41868 ± 0.00035
298.15 K, x1 = 0.1965
  refractive index: 1.43773 ± 0.00039
298.15 K, x1 = 0.2957
  refractive index: 1.45066 ± 0.00045
298.15 K, x1 = 0.416
  refractive index: 1.4594 ± 0.00054
298.15 K, x1 = 0.5184
  refractive index: 1.46786 ± 0.00062
298.15 K, x1 = 0.5347
  refractive index: 1.46843 ± 0.00064
298.15 K, x1 = 0.6044
  refractive index: 1.46887 ± 0.00069
298.15 K, x1 = 0.6931
  refractive index: 1.4723 ± 0.00077
298.15 K, x1 = 0.7801
  refractive index: 1.47121 ± 0.00085
298.15 K, x1 = 0.8279
  refractive index: 1.47368 ± 0.00089
298.15 K, x1 = 0.8996
  refractive index: 1.47898 ± 0.00096
303.15 K, x1 = 0.0258
  refractive index: 1.36748 ± 0.00046
303.15 K, x1 = 0.0511
  refractive index: 1.38899 ± 0.00047
303.15 K, x1 = 0.074
  refractive index: 1.40897 ± 0.00039
303.15 K, x1 = 0.1027
  refractive index: 1.41749 ± 0.00035
303.15 K, x1 = 0.1965
  refractive index: 1.43645 ± 0.00039
303.15 K, x1 = 0.2957
  refractive index: 1.44934 ± 0.00045
303.15 K, x1 = 0.416
  refractive index: 1.45817 ± 0.00054
303.15 K, x1 = 0.5184
  refractive index: 1.46656 ± 0.00062
303.15 K, x1 = 0.5347
  refractive index: 1.46709 ± 0.00063
303.15 K, x1 = 0.6044
  refractive index: 1.46754 ± 0.00069
303.15 K, x1 = 0.6931
  refractive index: 1.47098 ± 0.00077
303.15 K, x1 = 0.7801
  refractive index: 1.47001 ± 0.00085
303.15 K, x1 = 0.8279
  refractive index: 1.47226 ± 0.00089
303.15 K, x1 = 0.8996
  refractive index: 1.47758 ± 0.00096
308.15 K, x1 = 0.0258
  refractive index: 1.36732 ± 0.00046
308.15 K, x1 = 0.0511
  refractive index: 1.38799 ± 0.00047
308.15 K, x1 = 0.074
  refractive index: 1.4078 ± 0.00039
308.15 K, x1 = 0.1027
  refractive index: 1.4163 ± 0.00035
308.15 K, x1 = 0.1965
  refractive index: 1.43516 ± 0.00039
308.15 K, x1 = 0.2957
  refractive index: 1.448 ± 0.00045
308.15 K, x1 = 0.416
  refractive index: 1.45679 ± 0.00054
308.15 K, x1 = 0.5184
  refractive index: 1.46532 ± 0.00062
308.15 K, x1 = 0.5347
  refractive index: 1.46577 ± 0.00063
308.15 K, x1 = 0.6044
  refractive index: 1.4662 ± 0.00069
308.15 K, x1 = 0.6931
  refractive index: 1.46966 ± 0.00077
308.15 K, x1 = 0.7801
  refractive index: 1.46842 ± 0.00085
308.15 K, x1 = 0.8279
  refractive index: 1.47073 ± 0.00089
308.15 K, x1 = 0.8996
  refractive index: 1.47607 ± 0.00096
313.15 K, x1 = 0.0258
  refractive index: 1.36664 ± 0.00045
313.15 K, x1 = 0.0511
  refractive index: 1.38719 ± 0.00046
313.15 K, x1 = 0.074
  refractive index: 1.40673 ± 0.00039
313.15 K, x1 = 0.1027
  refractive index: 1.4151 ± 0.00035
313.15 K, x1 = 0.1965
  refractive index: 1.43386 ± 0.00039
313.15 K, x1 = 0.2957
  refractive index: 1.44669 ± 0.00045
313.15 K, x1 = 0.416
  refractive index: 1.45543 ± 0.00054
313.15 K, x1 = 0.5184
  refractive index: 1.46399 ± 0.00062
313.15 K, x1 = 0.5347
  refractive index: 1.46444 ± 0.00063
313.15 K, x1 = 0.6044
  refractive index: 1.46489 ± 0.00069
313.15 K, x1 = 0.6931
  refractive index: 1.46835 ± 0.00077
313.15 K, x1 = 0.7801
  refractive index: 1.46703 ± 0.00085
313.15 K, x1 = 0.8279
  refractive index: 1.46931 ± 0.00089
313.15 K, x1 = 0.8996
  refractive index: 1.47467 ± 0.00096
318.15 K, x1 = 0.0258
  refractive index: 1.36649 ± 0.00045
318.15 K, x1 = 0.0511
  refractive index: 1.38658 ± 0.00046
318.15 K, x1 = 0.074
  refractive index: 1.40601 ± 0.00039
318.15 K, x1 = 0.1027
  refractive index: 1.41389 ± 0.00035
318.15 K, x1 = 0.1965
  refractive index: 1.43253 ± 0.00039
318.15 K, x1 = 0.2957
  refractive index: 1.44535 ± 0.00045
318.15 K, x1 = 0.416
  refractive index: 1.45415 ± 0.00054
318.15 K, x1 = 0.5184
  refractive index: 1.46255 ± 0.00062
318.15 K, x1 = 0.5347
  refractive index: 1.46311 ± 0.00064
318.15 K, x1 = 0.6044
  refractive index: 1.46346 ± 0.00069
318.15 K, x1 = 0.6931
  refractive index: 1.46704 ± 0.00077
318.15 K, x1 = 0.7801
  refractive index: 1.46554 ± 0.00085
318.15 K, x1 = 0.8279
  refractive index: 1.46789 ± 0.00089
318.15 K, x1 = 0.8996
  refractive index: 1.47331 ± 0.00096
323.15 K, x1 = 0.0258
  refractive index: 1.36665 ± 0.00046
323.15 K, x1 = 0.0511
  refractive index: 1.38756 ± 0.00046
323.15 K, x1 = 0.074
  refractive index: 1.40547 ± 0.00039
323.15 K, x1 = 0.1027
  refractive index: 1.41332 ± 0.00035
323.15 K, x1 = 0.1965
  refractive index: 1.43117 ± 0.00039
323.15 K, x1 = 0.2957
  refractive index: 1.44401 ± 0.00045
323.15 K, x1 = 0.416
  refractive index: 1.45266 ± 0.00054
323.15 K, x1 = 0.5184
  refractive index: 1.46151 ± 0.00062
323.15 K, x1 = 0.5347
  refractive index: 1.4618 ± 0.00063
323.15 K, x1 = 0.6044
  refractive index: 1.46206 ± 0.00069
323.15 K, x1 = 0.6931
  refractive index: 1.46574 ± 0.00077
323.15 K, x1 = 0.7801
  refractive index: 1.46388 ± 0.00085
323.15 K, x1 = 0.8279
  refractive index: 1.46631 ± 0.00089
323.15 K, x1 = 0.8996
  refractive index: 1.47199 ± 0.00096
